Test: In vitro stability (plasma, microsomes) and in vivo mouse pharmacokinetics
Description: Microsome stability assays were performed as previously described (see, e.g., Choi J Y, Calvet C M, Gunatilleke S S, Ruiz C, Cameron M D, McKerrow J H, et al. Rational development of 4-aminopyridyl-based inhibitors targeting Trypanosoma cruzi CYP51 as anti-chagas agents. J Med Chem. 56(19):7651-68. PMCID: 3864028); for plasma stability, 100% freshly drawn plasma in LiHeparin was used with similar sampling and sample preparation with no addition of microsomes, buffer or NADPH.
Male Swiss albino mice were dosed via tail vein (IV; intravenous, solution in 5% NMP and 10% solutol in saline, dose: 2 mg/kg) or via oral gavage (PO; suspensions in 0.5% w/v Na CMC with 0.1% v/v Tween-80 in water). Blood and brain samples were collected at 0, 0.083 (for IV only), 0.25, 0.5, 1, 2, 4, 6 (for PO only), 8, 12, and 24 hours for the IV and PO groups. The blood samples were collected from sets of three mice at each time point. Plasma samples were separated by centrifugation and stored below −70° C. until analysis. Brain samples were homogenized using ice-cold phosphate buffer saline (pH 7.4) and homogenates were stored below −70° C. until analysis. All samples were processed and analyzed by […] (LLOQ, 2.03 ng/mL for plasma and 10.16 ng/mL for brain). Pharmacokinetic parameters were calculated using the noncompartmental analysis tool of Phoenix WinNonlin (version 5.3).

N#CCC(=O)NNC(=S)Nc1ccc(Cl)c(Cl)c1 [iKIX1, 2-(2-Cyanoacetyl)-N-(3,4-dichlorophenyl)hydrazinecarbothioamide]
in vitro stability and in vivo mouse pharmacokinetics (in words): favorable drug-like properties and in vivo exposure
